# ChEMBL document CHEMBL5528048, “Discovery of Novel Potent and Fast BTK PROTACs for the Treatment of Osteoclasts-Related Inflammatory Diseases” (J Med Chem, 2024)
# Activity calls are given as the source filed them. The rule behind the calls is not given here.
# Key:
# [1] = target: T1, Protein cereblon/Tyrosine-protein kinase BTK (Mus musculus) (UniProt P35991+Q8C7D2); assay: PROTAC activity at BTK/CRBN in mCSF/RANKL-stimulated C57BL/6J mouse BMDM assessed as reduction in phosphorylated PLCgamma2 protein level at 25 to 100 nM followed by stimulated with mCSF/RANKL measured after 2 hrs by Western blotting analysis; assay type: cell-based; details: dose 25-100 nM
# T1 sequence (P35991 whole entry, looked up): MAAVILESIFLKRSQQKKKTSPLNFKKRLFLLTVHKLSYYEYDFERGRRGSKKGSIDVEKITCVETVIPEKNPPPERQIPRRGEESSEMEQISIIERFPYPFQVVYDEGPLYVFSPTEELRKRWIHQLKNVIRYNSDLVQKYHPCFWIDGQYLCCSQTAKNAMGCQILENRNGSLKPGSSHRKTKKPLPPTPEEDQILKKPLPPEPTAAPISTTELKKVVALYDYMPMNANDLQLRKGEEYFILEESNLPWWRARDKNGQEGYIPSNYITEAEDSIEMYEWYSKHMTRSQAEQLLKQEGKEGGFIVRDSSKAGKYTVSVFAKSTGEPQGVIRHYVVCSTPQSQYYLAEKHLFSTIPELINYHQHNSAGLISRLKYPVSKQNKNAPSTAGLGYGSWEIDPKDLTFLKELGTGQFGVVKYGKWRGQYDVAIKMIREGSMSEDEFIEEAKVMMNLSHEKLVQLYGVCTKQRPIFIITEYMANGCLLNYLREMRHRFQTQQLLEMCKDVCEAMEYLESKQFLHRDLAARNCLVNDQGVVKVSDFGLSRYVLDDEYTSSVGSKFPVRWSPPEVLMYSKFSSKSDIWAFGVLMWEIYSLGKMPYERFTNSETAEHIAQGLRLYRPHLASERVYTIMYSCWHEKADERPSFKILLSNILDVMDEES
# T1 sequence (Q8C7D2 whole entry, looked up): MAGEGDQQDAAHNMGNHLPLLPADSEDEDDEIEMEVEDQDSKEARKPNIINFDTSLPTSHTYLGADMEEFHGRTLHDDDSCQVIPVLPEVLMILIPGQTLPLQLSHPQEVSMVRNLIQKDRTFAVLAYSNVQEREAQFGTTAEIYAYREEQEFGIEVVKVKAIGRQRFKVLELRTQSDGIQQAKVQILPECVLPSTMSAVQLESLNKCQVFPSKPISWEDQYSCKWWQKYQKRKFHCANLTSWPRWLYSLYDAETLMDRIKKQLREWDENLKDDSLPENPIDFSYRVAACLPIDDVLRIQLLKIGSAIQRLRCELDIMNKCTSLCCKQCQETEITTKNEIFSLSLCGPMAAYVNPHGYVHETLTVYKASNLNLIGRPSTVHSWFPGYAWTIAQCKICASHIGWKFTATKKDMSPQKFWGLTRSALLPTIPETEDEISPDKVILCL
# [2] = target: T2, Protein cereblon/Tyrosine-protein kinase BTK (Homo sapiens, UniProt Q06187+Q96SW2); assay: Binding affinity to BTK/CRBN (unknown origin) assessed as ternary complex formation by measuring peak HTRF ratio at wavelength 665/620 nm measured after 60 mins incubation by HTRF assay
# T2 sequence (Q06187 2-659 limits assumed): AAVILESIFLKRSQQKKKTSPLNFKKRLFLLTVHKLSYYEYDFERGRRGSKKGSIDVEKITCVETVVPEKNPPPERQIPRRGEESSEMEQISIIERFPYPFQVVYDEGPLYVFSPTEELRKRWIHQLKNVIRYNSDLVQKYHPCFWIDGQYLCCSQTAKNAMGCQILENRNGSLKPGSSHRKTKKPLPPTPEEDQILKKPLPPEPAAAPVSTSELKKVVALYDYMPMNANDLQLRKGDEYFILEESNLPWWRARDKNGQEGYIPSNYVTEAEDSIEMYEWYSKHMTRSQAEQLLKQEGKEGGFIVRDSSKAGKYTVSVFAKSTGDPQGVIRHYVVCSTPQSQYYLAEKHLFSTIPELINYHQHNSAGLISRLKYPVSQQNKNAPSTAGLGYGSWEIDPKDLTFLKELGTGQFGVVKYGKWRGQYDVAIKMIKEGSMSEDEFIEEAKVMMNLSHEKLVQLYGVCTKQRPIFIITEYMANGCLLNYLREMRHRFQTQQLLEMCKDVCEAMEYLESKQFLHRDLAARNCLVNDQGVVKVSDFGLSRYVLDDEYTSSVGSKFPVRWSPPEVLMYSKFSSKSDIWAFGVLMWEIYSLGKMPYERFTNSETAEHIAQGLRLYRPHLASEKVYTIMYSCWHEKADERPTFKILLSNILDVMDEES
# T2 sequence (Q96SW2 whole entry partner): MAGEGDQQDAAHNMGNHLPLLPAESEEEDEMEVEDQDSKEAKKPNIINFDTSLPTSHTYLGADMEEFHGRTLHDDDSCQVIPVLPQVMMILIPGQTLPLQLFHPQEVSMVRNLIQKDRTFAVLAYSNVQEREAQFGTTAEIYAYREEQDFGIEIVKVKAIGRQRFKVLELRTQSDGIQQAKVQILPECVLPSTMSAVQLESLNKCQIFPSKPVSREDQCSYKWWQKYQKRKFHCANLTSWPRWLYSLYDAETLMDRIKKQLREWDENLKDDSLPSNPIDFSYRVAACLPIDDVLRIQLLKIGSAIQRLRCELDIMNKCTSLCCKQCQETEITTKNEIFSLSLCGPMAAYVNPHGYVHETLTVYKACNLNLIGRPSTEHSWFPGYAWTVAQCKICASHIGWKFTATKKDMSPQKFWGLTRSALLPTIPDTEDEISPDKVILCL
# BMMC [3] = assay: Inhibition of RANKKL-induced upregulation of osteoclast related genes in C57BL/6J mouse BMM cells assessed as reduction in mCSF/RANKL-stimulated CTSK gene expression at 25 to 100 nM followed by stimulated with mCSF/RANKL measured after 2 hrs by qPCR analysis; assay type: functional, cell-based; details: dose 25-100 nM
# [4] = target: T1, Protein cereblon/Tyrosine-protein kinase BTK (Mus musculus); assay: PROTAC activity at BTK/CRBN in mCSF/RANKL-stimulated C57BL/6J mouse BMDM assessed as reduction in phosphorylated ERK protein level at 25 to 100 nM followed by stimulated with mCSF/RANKL measured after 2 hrs by Western blotting analysis; assay type: cell-based; details: dose 25-100 nM
# Mus musculus [5] = assay: Antiosteoclastogenic effects in LPS-soaked ligature-induced C57BL/6J mouse periodontal disease model assessed as reduction in periodontal alveolar bone loss by measuring distance between the alveolar bone crest (ABC) at 10 to 30 mg/kg, ip treated on day 0, 1,4, 7 and measured on day 10 by Micro-CT 3D scan; assay type: functional, organism-based; details: dose 10-30 mg/kg, time 7.0 day
# [6] = target: T1, Protein cereblon/Tyrosine-protein kinase BTK (Mus musculus); assay: PROTAC activity at BTK/CRBN in mCSF/RANKL-stimulated C57BL/6J mouse BMDM assessed as reduction in phosphorylated BTK protein level at 25 to 100 nM followed by stimulated with mCSF/RANKL measured after 2 hrs by Western blotting analysis; assay type: cell-based; details: dose 25-100 nM
# [7] = Half life in Sprague-Dawley rat at 4 mg/kg, ip measured upto 48 hrs; assay type: ADME, organism-based; details: in vivo
# [8] = Apparent volume of distribution in Sprague-Dawley rat at 4 mg/kg, ip measured upto 48 hrs; assay type: ADME, organism-based; details: in vivo
# [9] = target: T1, Protein cereblon/Tyrosine-protein kinase BTK (Mus musculus); assay: PROTAC activity at BTK/CRBN in mCSF/RANKL-stimulated C57BL/6J mouse BMDM assessed as reduction in phosphorylated NFkappa-p65 protein level at 25 to 100 nM followed by stimulated with mCSF/RANKL measured after 2 hrs by Western blotting analysis; assay type: cell-based; details: dose 25-100 nM
# Mus musculus [10] = assay: Antiosteoclastogenic effects in LPS-soaked ligature-induced C57BL/6J mouse periodontal disease model assessed as reduction in periodontal alveolar bone loss by measuring increase in bone volume per tissue volume (BV/TV%) at 10 to 30 mg/kg, ip treated on day 0, 1,4, 7 and measured on day 10 by Micro-CT 3D scan; assay type: functional, organism-based; details: dose 10-30 mg/kg, time 7.0 day
# [11] = target: T3, Tyrosine-protein kinase BTK (Homo sapiens, UniProt Q06187); assay: Inhibition of BTK (unknown origin) measured after 60 mins incubation by microtiter-plate reader
# T3 sequence (Q06187 whole entry): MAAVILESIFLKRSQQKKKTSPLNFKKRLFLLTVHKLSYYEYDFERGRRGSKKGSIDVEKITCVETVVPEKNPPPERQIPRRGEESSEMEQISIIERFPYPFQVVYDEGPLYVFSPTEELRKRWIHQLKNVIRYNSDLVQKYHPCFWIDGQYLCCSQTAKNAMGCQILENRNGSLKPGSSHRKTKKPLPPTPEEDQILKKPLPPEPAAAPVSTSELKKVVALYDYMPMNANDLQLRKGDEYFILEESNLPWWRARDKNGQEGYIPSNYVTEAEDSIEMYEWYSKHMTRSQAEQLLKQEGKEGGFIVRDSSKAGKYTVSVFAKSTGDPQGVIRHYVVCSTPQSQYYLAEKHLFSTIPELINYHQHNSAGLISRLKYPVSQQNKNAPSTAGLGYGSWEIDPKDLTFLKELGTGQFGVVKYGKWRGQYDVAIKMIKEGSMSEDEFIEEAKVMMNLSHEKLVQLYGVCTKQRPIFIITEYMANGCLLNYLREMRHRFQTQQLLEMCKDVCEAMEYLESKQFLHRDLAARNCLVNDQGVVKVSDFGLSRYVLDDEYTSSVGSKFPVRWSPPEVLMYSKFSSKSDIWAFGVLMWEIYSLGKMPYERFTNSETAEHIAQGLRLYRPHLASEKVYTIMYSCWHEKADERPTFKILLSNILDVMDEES
# Protein cereblon = Protein cereblon (Homo sapiens, UniProt Q96SW2); assay: Inhibition of CRBN (unknown origin) measured after 60 mins incubation by BMG reader
# Sequence of Protein cereblon (Q96SW2 whole entry): as the sequence (Q96SW2 whole entry partner) above
# [12] = target: T1, Protein cereblon/Tyrosine-protein kinase BTK (Mus musculus); assay: PROTAC activity at BTK/CRBN in C57BL/6J mouse BMDM assessed as reduction in mCSF/RANKL-stimulated intracellular calcium influx by measuring fluorescence intensity measured after 2 hrs by Fluo-4/AM-fluorescent assay; assay type: cell-based; details: dose 25-100 nM
# [13] = AUC (0 to infinity) in Sprague-Dawley rat at 2 mg/kg, iv measured upto 48 hrs; assay type: ADME, organism-based; details: in vivo
# [14] = target: T1, Protein cereblon/Tyrosine-protein kinase BTK (Mus musculus); assay: PROTAC activity at BTK/CRBN in mCSF/RANKL-stimulated C57BL/6J mouse BMDM assessed as BTK protein degradation at 25 to 100 nM followed by stimulated with mCSF/RANKL measured after 2 hrs by Western blotting analysis; assay type: cell-based; details: dose 25-100 nM
# [15] = target: T2, Protein cereblon/Tyrosine-protein kinase BTK; assay: PROTAC activity at BTK/CRBN in human MINO cells assessed as BTK protein degradation half life at 20 nM by Western blotting analysis; assay type: cell-based
# Mus musculus [16] = assay: Antiosteoclastogenic effects in LPS-soaked ligature-induced C57BL/6J mouse periodontal disease model assessed as reduction in periodontal alveolar bone loss by measuring distance between the cemento-enamel junction (CEJ) at 10 to 30 mg/kg, ip treated on day 0, 1,4, 7 and measured on day 10 by Micro-CT 3D scan; assay type: functional, organism-based; details: dose 10-30 mg/kg, time 7.0 day
# [17] = AUC (0 to t) in Sprague-Dawley rat at 4 mg/kg, ip measured upto 48 hrs; assay type: ADME, organism-based; details: in vivo
# [18] = Clearance in Sprague-Dawley rat at 4 mg/kg, ip measured upto 48 hrs; details: in vivo
# [19] = Clearance in Sprague-Dawley rat at 2mg/kg, iv measured upto 48 hrs; assay type: ADME, organism-based; details: in vivo
# BMMC [20] = assay: Cytotoxicity against C57BL/6J mouse BMM cells assessed as cell viability at 10 uM measured after 1 to 2 hrs by CCK8 assay; assay type: toxicity, cell-based; details: time 1-2 hrs
# [21] = target: T2, Protein cereblon/Tyrosine-protein kinase BTK; assay: PROTAC activity at BTK/CRBN in human MINO cells assessed as BTK protein degradation at 20 nM by Western blotting analysis; assay type: cell-based; details: time lower 2.0 hrs, time upper […], TDE = time-dependent effect
# [22] = Cmax in Sprague-Dawley rat at 2 mg/kg, iv measured upto 48 hrs; assay type: ADME, organism-based; details: in vivo
# [23] = target: T2, Protein cereblon/Tyrosine-protein kinase BTK; assay: PROTAC activity at BTK/CRBN in human MINO cells assessed as BTK protein degradation at 100 nM measured after 24 hrs by Western blotting analysis relative to control; assay type: cell-based
# [24] = target: T1, Protein cereblon/Tyrosine-protein kinase BTK (Mus musculus); assay: PROTAC activity at BTK/CRBN in C57BL/6J mouse BMM cells assessed as reduction in mCSF/RANKL-stimulated c-Fos protein expression at 25 to 100 nM followed by stimulated with mCSF/RANKL measured after 2 hrs by Western blot analysis; assay type: cell-based; details: BMDM, dose 25-100 nM
# [25] = target: T3, Tyrosine-protein kinase BTK; assay: Binding affinity to BTK (unknown origin) assessed as inhibition constant measured after 60 mins incubation by microtiter-plate reader
# [26] = Bioavailability in Sprague-Dawley rat at 4 mg/kg, ip measured upto 48 hrs; assay type: ADME, organism-based; details: in vivo
# BMMC [27] = assay: Inhibition of RANKKL-induced upregulation of osteoclast related genes in C57BL/6J mouse BMM cells assessed as reduction in mCSF/RANKL-stimulated TRAP gene expression at 25 to 100 nM followed by stimulated with mCSF/RANKL measured after 2 hrs by qPCR analysis; assay type: functional, cell-based; details: dose 25-100 nM
# [28] = Half life in Sprague-Dawley rat at 2 mg/kg, iv measured upto 48 hrs; assay type: ADME, organism-based; details: in vivo
# [29] = target: T2, Protein cereblon/Tyrosine-protein kinase BTK; assay: PROTAC activity at BTK/CRBN in human MINO cells assessed as BTK protein degradation pretreated with 2 uM MG132 followed by 1 hr treated at 20 nM measured after 48 hrs by Western blotting analysis; assay type: cell-based; details: dose […]
# Mus musculus [30] = assay: Antiosteoclastogenic effects in LPS-soaked ligature-induced C57BL/6J mouse periodontal disease model assessed as reduction in periodontal alveolar bone loss at 10 mg/kg, ip treated on day 0, 1,4, 7 and measured on day 10 by Micro-CT 3D scan; assay type: functional, organism-based; details: time 7.0 day
smiles,measurement,setting,value
Cc1cc(-c2nc(Nc3cnn(C4CCN(CC5CCN(c6ccc7c(c6)C(=O)N(C6CCC(=O)NC6=O)C7=O)CC5)CC4)c3)ncc2F)ccc1CNC(=O)c1cn(C(C)(C)C)nn1 (stereo unspecified),Activity,[1],Active
same,Ratio,[2],8.59
same,inhibition,BMMC [3],Active
same,Activity,[4],Active
same,Activity,Mus musculus [5],Active
same,Activity,[6],Active
same,half-life,[7],13.6 h
same,Vz,[8],30.04 L/kg
same,Activity,[9],Active
same,Activity,Mus musculus [10],Active
same,IC50,[11],299 nM
same,IC50,Protein cereblon,248 nM
same,Activity,[12],Dose-Dependent Effect
same,AUC(0-inf),[13],2350 ng·h/mL
same,Activity,[14],inactive
same,T1/2,[15],0.59 h
same,Activity,Mus musculus [16],Active
same,AUC(0-t) at 48 h,[17],2800 ng·h/mL
same,CL/F at 48 h,[18],25.8 mL/min/kg
same,clearance,[19],15.2 mL/min/kg
same,Activity,BMMC [20],Non-Toxic
same,Activity,[21],Tde
same,Cmax,[22],645 ng/mL
same,Activity,[23],99%
same,Activity,[24],Active
same,Ki,[25],152 nM
same,bioavailability,[26],65.7%
same,inhibition,BMMC [27],Active
same,half-life,[28],7.03 h
same,Activity,[29],inactive
same,Activity,Mus musculus [30],Active
